Series [1] deals with HCT116 (human colon carcinoma cells). The settings on record: read-out: IC50 ± SD HCT116; ref 10b; cited from earlier work.
The test system of series [2] is A549 (human lung carcinoma) cells. Conditions: read-out: IC50 ± SD A549; MTT method; 48 h; ref 10b; cited from earlier work. Background: Tetrazolium assays rely on reduction of a dye to a coloured formazan, in cell work by metabolically active cells.
A further series has as its system HeLa cells. Kind of series: Cell cycle analysis in HeLa cells. The format is cell-based, human. Conditions: 24 h; for cell cycle arrest, in words: 20 nM; for cell cycle arrest (G2/M accumulation), in words: 100 nM.
The next series has as its system tubulin. Kind of series: Tubulin assembly. Type of series: biochemical. The settings on record: for IC50: read-out: Tubulin Assembly IC50 ± SD, tubulin at 10 μM.
Series [3] has as its system MCF-7 human breast carcinoma cells. Description: cells. Conditions: MCF7, 96 h, read-out: MCF-7 IC50 ± SD.
The subject of another series is HepG2 cells. Kind of series: Cell cycle analysis in HepG2 cells. Conditions: HepG2, lowest concentration (500 nM), 24 h. Type of series: cell-based, human.
In another series the test system is PC-3 cells. Kind of series: Cell cycle analysis in PC-3 cells. Conditions: PC-3, lowest concentration (500 nM), 24 h. Type of series: cell-based, human.
A further series is described as follows: in vitro. The settings on record: human, Caco-2.
In another series the test system is RD cells. Kind of series: Cell cycle analysis in RD cells. Type of series: cell-based. The settings on record: lowest concentration (500 nM), 24 h.
Series [4] relates to human liver hepatocellular carcinoma cell line HepG2. Description: Growth inhibition of HepG2 cells. The format is cell-based. Conditions: HepG2, 48 h, read-out: IC50 ± SD HepG2.
The subject of series [5] is HT29 (human colon adenocarcinoma) cells. The settings on record: read-out: IC50 ± SD HT-29; MTT method; 48 h; ref 10b; cited from earlier work.
The subject of series [6] is HeLa (human cervical carcinoma) cells. Conditions: read-out: IC50 ± SD HeLA; MTT method; 48 h; ref 10b; cited from earlier work.

In general, IC50 refers to the point on the concentration scale where inhibition reaches its midpoint. What is called Papp is the rate of passage across a membrane or cell layer, normalised by area and donor concentration. Broadly, the efflux ratio is a quotient of directional permeabilities that is used to spot active efflux.

For the compound `COc1ccc(/C=C\c2cc(OC)c(OC)c(OC)c2)cc1O` [Compound 2, combretastatin A-4], the IC50 in [1] is 5 ± 0.4 nM; in series [2], more than 10000 nM.

Regarding `COc1cc(C(=O)c2ccn(-c3ccccc3)c2)cc(OC)c1OC` [Compound 4, (1-Phenyl-1H-pyrrol-3-yl)-(3,4,5-trimethoxyphenyl)methanone], in the series with HeLa cells, the “cell cycle arrest, in words” value is on record as “only a minimal effect” and the “cell cycle arrest (G2/M accumulation), in words” value is recorded as “effectively arrested cell cycle progression”.

On to `COc1cc(C(=O)c2cc[nH]c2)cc(OC)c1OC` [Compound 9, (1H-Pyrrol-3-yl)(3,4,5-trimethoxyphenyl)methanone], for which, in the series on tubulin, the “effect on tubulin polymerization (in words)” value (from here on “effect”) is “did not inhibit tubulin assembly”.

As for `COc1cc(C(=O)c2ccn(C)c2)cc(OC)c1OC` [Compound 10, (1-Methyl-1H-pyrrol-3-yl)(3,4,5-trimethoxyphenyl)methanone], in the series with tubulin, the “effect” value was “did not inhibit tubulin assembly”.

As to `O=C(c1ccccc1)c1ccn(-c2ccccc2)c1` [Compound 11, Phenyl(1-phenyl-1H-pyrrol-3-yl)methanone], in the series with tubulin, the “effect” value is recorded as “did not inhibit tubulin assembly” and the IC50 was more than 20000 nM.

For the compound `COc1cc(C(=O)c2ccn(-c3ccccc3F)c2)cc(OC)c1OC` [Compound 15, (1-(2-Fluorophenyl)-1H-pyrrol-3-yl)(3,4,5-trimethoxyphenyl)-methanone], in the series on tubulin, the IC50 is not above 1000 nM.

As to `COc1cc(C(=O)c2ccn(-c3ccccc3[N+](=O)[O-])c2)cc(OC)c1OC` [Compound 18, (1-(2-Nitrophenyl)-1H-pyrrol-3-yl)(3,4,5-trimethoxyphenyl)-methanone], in the series with tubulin, the IC50 is more than 20000 nM.

As for `COc1cc(C(=O)c2ccn(-c3cccc([N+](=O)[O-])c3)c2)cc(OC)c1OC` [Compound 19, (1-(3-Nitrophenyl)-1H-pyrrol-3-yl)(3,4,5-trimethoxyphenyl)-methanone], the IC50 in series [3] stood at 230 ± 60 nM.

For the compound `COc1cc(C(=O)c2ccn(-c3ccc([N+](=O)[O-])cc3)c2)cc(OC)c1OC` [Compound 20, (1-(4-Nitrophenyl)-1H-pyrrol-3-yl)(3,4,5-trimethoxyphenyl)-methanone], the IC50 in the series with tubulin was more than 20000 nM.

For the compound `COc1cc(C(=O)c2ccn(-c3cccc(N)c3)c2)cc(OC)c1OC` [Compound 22, (1-(3-Aminophenyl)-1H-pyrrol-3-yl)(3,4,5-trimethoxyphenyl)-methanone], the “cell cycle arrest, in words” value is “effectively arrested cell cycle progression” in the series with HepG2 cells; “effectively arrested cell cycle progression” in the series on PC-3 cells; “as effective as VBL and 2” in the series with HeLa cells; “effectively arrested cell cycle progression” in the series with RD cells. The compound also came in with a Papp in “in vitro” of more than 5 ×10⁻⁶ cm/s. Further, in “in vitro”, the efflux ratio is less than 2. Also, the “cell cycle arrest (G2/M accumulation), in words” value in the series on HeLa cells is “effectively arrested cell cycle progression”.

In the case of `CNc1cccc(-n2ccc(C(=O)c3cc(OC)c(OC)c(OC)c3)c2)c1` [Compound 24, (1-(3-(Methylamino)phenyl)-1H-pyrrol-3-yl)(3,4,5-trimethoxyphenyl)methanone], the IC50 in the series on tubulin is not above 1000 nM.

With `COc1cc(C(=O)c2ccn(-c3cccc(NC(=N)N)c3)c2)cc(OC)c1OC.Cl` [Compound 27, 1-(3-(3-(3,4,5-Trimethoxybenzoyl)-1H-pyrrol-1-yl)phenyl)-guanidine Hydrochloride], the “cell cycle arrest, in words” value with HepG2 cells, in the series on PC-3 cells and in the series with RD cells was “effectively arrested cell cycle progression” in each case.

As to `COc1cc(C(=O)c2ccn(-c3cccc(NS(C)(=O)=O)c3)c2)cc(OC)c1OC` [Compound 28, N-(3-(3-(3,4,5-Trimethoxybenzoyl)-1H-pyrrol-1-yl)phenyl)-methanesulfonamide], the IC50 with tubulin is not above 1000 nM.

Consider `COc1cc(C(=O)c2ccn(-c3cccc(N4CCCCC4)c3)c2)cc(OC)c1OC` [Compound 31, (1-(3-(Piperidin-1-yl)phenyl)-1H-pyrrol-3-yl)(3,4,5-trimethoxyphenyl)methanone], for which the IC50 with tubulin is more than 20000 nM.

In the case of `COc1cc(C(=O)c2ccn(-c3cccc(C)c3)c2)cc(OC)c1OC` [Compound 33, (1-(3-Tolyl)-1H-pyrrol-3-yl)(3,4,5-trimethoxyphenyl)methanone], the IC50 with tubulin was not above 1000 nM.

As to `COc1cc(C(=O)c2ccn(-c3ccc(C)cc3)c2)cc(OC)c1OC` [Compound 34, (1-(4-Tolyl)-1H-pyrrol-3-yl)(3,4,5-trimethoxyphenyl)methanone], the IC50 in the series with tubulin was not above 1000 nM.

Take `COc1cc(C(=O)c2ccn(-c3ccc(OC(C)C)cc3)c2)cc(OC)c1OC` [Compound 40, (1-(4-Isopropoxyphenyl)-1H-pyrrol-3-yl)(3,4,5-trimethoxyphenyl)-methanone]: the IC50 in the series with tubulin is more than 20000 nM.

As for `COc1cc(C(=O)c2ccn(-c3cccc(OCc4ccccc4)c3)c2)cc(OC)c1OC` [Compound 41, (1-(3-(Benzyloxy)phenyl)-1H-pyrrol-3-yl)(3,4,5-trimethoxyphenyl)methanone], the IC50 in the series on tubulin was more than 20000 nM.

As to `COc1ccc(-n2ccc(C(=O)c3cc(OC)c(OC)c(OC)c3)c2)cc1[N+](=O)[O-]` [Compound 45, (1-(4-Methox y-3-ni tro phenyl)-1H-pyrrol-3-yl)(3,4,5-trimethoxyphenyl)methanone], the IC50 with tubulin came out at 15000 ± 70 nM.

For the compound `COc1cc(-n2ccc(C(=O)c3ccccc3)c2)cc(OC)c1OC` [Compound 50, Phenyl(1-(3,4,5-trimethoxyphenyl)-1H-pyrrol-3-yl)methanone], the IC50 in the series with tubulin was more than 20000 nM.

On to `COc1ccc(C(=O)c2ccn(-c3cc(OC)c(OC)c(OC)c3)c2)cc1OC(C)C` [Compound 53, (3-Isopropoxy-4-methoxyphenyl)(1-(3,4,5-trimethoxyphenyl)-1H-pyrrol-3-yl)methanone], for which the IC50 in the series on tubulin was more than 20000 nM.

For `CC(=O)O[C@H]1C(=O)[C@@]2(C)[C@H]([C@H](OC(=O)c3ccccc3)[C@]3(O)C[C@H](OC(=O)[C@H](O)[C@@H](NC(=O)c4ccccc4)c4ccccc4)C(C)=C1C3(C)C)[C@]1(OC(C)=O)CO[C@@H]1C[C@@H]2O` [PTX, paclitaxel], the IC50 in series [4] is 2037 ± 2 nM; in series [2], 7 ± 2 nM.

Consider `CC[C@]1(O)C[C@@H]2CN(CCc3c([nH]c4ccccc34)[C@@](C(=O)OC)(c3cc4c(cc3OC)N(C)[C@H]3[C@@](O)(C(=O)OC)[C@H](OC(C)=O)[C@]5(CC)C=CCN6CC[C@]43[C@@H]65)C2)C1` [VBL, vinblastine], for which the IC50 in series [5] is 30 ± 0.8 nM; in series [2] it was 20 ± 2 nM; in [6], 10 ± 0.6 nM.

On to `CC[C@]1(O)C[C@H]2CN(CCc3c([nH]c4ccccc34)[C@@](C(=O)OC)(c3cc4c(cc3OC)N(C=O)[C@H]3[C@@](O)(C(=O)OC)[C@H](OC(C)=O)[C@]5(CC)C=CCN6CC[C@]43[C@@H]65)C2)C1` [VCR, vincristine], for which, in series [4], the IC50 was found to be 177 ± 1.6 nM.

As for “(3-Isopropoxy-4-methoxyphenyl)(1-(3,4,5-trimethoxyphenyl)-1H-pyrrol-3-yl)methanone [Compound 52]”, the IC50 with tubulin was more than 20000 nM.

The values above are taken from PMC4154712 (Journal of medicinal chemistry, 2014).
